Laboratory results: patent US20080227222A1, “Method for the detection of target molecules by fluorescence polarization using peptide mimics” (priority 2007, published 2008)

Legend:
[1] = test system: anti-γ-interferon antibody (FA42); assay: Competition of fluorescently tagged peptides with IFN-41 expressing phage for binding to FA42; conditions: fluorescently tagged peptide against phage
Experimental: Further analysis of the peptide mimics sought to ascertain whether these peptides operated in the same manner as they do when expressed on the surface of the phage. In order to ascertain if these peptides operated in the same manner as they do when expressed on the surface of the phage, a competition assay was performed. In this assay, the newly created peptides were used to compete with the peptides on the surface of the phage for binding to FA42.
A gradient of inhibition of IFN-41 expressing phage binding by the two peptides is shown. The control peptide (ACA-20) is a mimic of cortisol. […] Additionally, FIG. 5 illustrates gradient inhibition of IFN-41 and IFN-19 using anti-gamma-interferon antibody.

[2] = test system: anti-gamma-interferon antibody; assay: Competition ELISA: increasing gamma-interferon against constant phage containing peptide mimic; assay type: binding; conditions: constant phage containing the mimic, detected with anti-phage antibody
Experimental: In order to identify peptide mimics, the procedure for described in Example 1 was followed. FA42™ anti-Gamma-interferon monoclonal antibody (Cellestis, Inc, Valencia, Calif.) was used in the screening of peptide mimics.
Identification of epitope sites that the peptides represented were then determined by comparing the peptide sequences with the known γ-interferon sequence. The identified peptides were then evaluated by the ability of gamma-interferon to inhibit binding of anti-γ-interferon antibody in ELISA. The results of this study is illustrated in FIG. 3 for peptide IFN-28. […] Phage binding was identified, in this study, using a specific anti-phage antibody.

[3] = test system: anti-cortisol antibody (ACA); assay: Competition ELISA: increasing cortisol against plate-coated phagotope for anti-cortisol antibody; assay type: binding; conditions: increasing amounts of cortisol, constant phage, FIG. 3
Experimental: Plates were coated with phagotopes and blocked as for the direct ELISA. […] Increasing amounts of cortisol was then added to 100 μl of specific antibody in 1% PBS-polyoxyethylene (20) sorbitan monolaurate. 100 μl replicates (4-6) of antibody/cortisol inhibitor was then left overnight.
The plates were washed and developed as for the direct ELISA. The results of these studies are illustrated in FIG. 3.

[4] = test system: anti-cortisol antibody (ACA); assay: ELISA binding of phagotopes to anti-cortisol antibody (biopanning screen); conditions: phagotope expressing peptide, FIG. 2
Experimental: Identification of reactive phagotopes was conducted by either direct, where the phagotopes are coated directly to the plate, or capture ELISA, were the phagotopes are tethered to the plate via the selection antibody. The two ELISA methods were employed because direct ELISA identifies highly reactive phagotopes that are likely to contain a strong motif, whereas the capture ELISA is more sensitive, therefore also selecting for phagotopes involving only weak interactions. For the direct ELISA, phage preparations were diluted in sterile PBS and duplicate samples of 100 μl/well were added to a 96-well microtitre plate. Plates were left overnight at 4° C., blocked for 2 hours at room temperature with 1% skimmed milk powder and 0.05% Tween 20 in PBS ph 7.4 and washed three times in Tris-buffered saline, pH 7.4, containing 0.05% polyoxyethylene (20) sorbitan monolaurate (TWEEN 20™). 100 μl of specific antibody diluted to 1 μg/ml in 1% PBS-polyoxyethylene (20) sorbitan monolaurate were added and left overnight. […] Absorbances were read at 415 nm after 30 minutes and 60 minutes. […]

Substance	competition with IFN-41 expressing phage for binding to anti-γ-interferon antibody [1]	competition by cortisol for antibody binding [3]	anti-cortisol antibody binding [4]	also measured
TQYEQHY (CTQYEQHYC; listed as Homo sapiens) [IFN-41]	competed	–	–	–
SQYENNH (CSQYENNHC; listed as Homo sapiens) [IFN-28]	–	–	–	competition for binding to anti-gamma-interferon antibody [2]: graded competition
ACA 20 (2): phagotope expressing peptide with high anti-cortisol antibody binding; probably clone of ACA-20 (YFTPVFINPTQV)	–	overlapping, dose-response competitive binding curves	comparatively high anti-cortisol antibody binding	–
YFTPVFINPTQV (listed as Homo sapiens) [ACA-20, control peptide in the gamma-interferon assay]	did not compete	–	–	–
TQYSQQM (CSQYSQLYC) [IFN-19]	competed	–	–	–
ACA 20 (1): phagotope expressing peptide with high anti-cortisol antibody binding; probably clone of ACA-20 (YFTPVFINPTQV)	–	overlapping, dose-response competitive binding curves	comparatively high anti-cortisol antibody binding	–
